Source: ChEMBL document CHEMBL4002623, “Synthesis and in vitro activity of dicationic indolyl diphenyl ethers as novel potent antibiotic agents against drug-resistant bacteria” (Bioorg Med Chem Lett, 2017)
Converted amounts (≈) assume the structure as drawn.

Legend:
[1] = system: Staphylococcus aureus; assay: Antibacterial activity against methicillin-sensitive Staphylococcus aureus ATCC 29213 by agar dilution method; format: functional
[2] = system: Staphylococcus aureus; assay: Antibacterial activity against methicillin-resistant Staphylococcus aureus 09-13 by agar dilution method; format: functional
[3] = system: Staphylococcus epidermidis; assay: Antibacterial activity against methicillin-sensitive Staphylococcus epidermidis ATCC 12228 by agar dilution method; format: functional
[4] = system: Staphylococcus epidermidis; assay: Antibacterial activity against methicillin-resistant Staphylococcus epidermidis 09-3 by agar dilution method; format: functional
[5] = system: Enterococcus faecalis; assay: Antibacterial activity against vancomycin-sensitive Enterococcus faecalis ATCC 29212 by agar dilution method; format: functional
[6] = system: Enterococcus faecalis; assay: Antibacterial activity against vancomycin-resistant Enterococcus faecalis 09-9 by agar dilution method; format: functional
[7] = system: Enterococcus faecium; assay: Antibacterial activity against vancomycin-resistant Enterococcus faecium ATCC 700221 by agar dilution method; format: functional
[8] = system: Escherichia coli; assay: Antibacterial activity against extended-spectrum beta-lactamase-negative Escherichia coli ATCC 25922 by agar dilution method; format: functional
[9] = system: Escherichia coli; assay: Antibacterial activity against extended-spectrum beta-lactamase-positive Escherichia coli 09-1 by agar dilution method; format: functional
[10] = system: Klebsiella pneumoniae; assay: Antibacterial activity against extended-spectrum beta-lactamase-negative Klebsiella pneumoniae 7 by agar dilution method; format: functional
[11] = system: Klebsiella pneumoniae; assay: Antibacterial activity against extended-spectrum beta-lactamase-positive Klebsiella pneumoniae 09-25 by agar dilution method; format: functional
[12] = system: Klebsiella pneumoniae; assay: Antibacterial activity against Klebsiella pneumoniae ATCC BAA-2146 expressing NDM-1 by agar dilution method; format: functional
[13] = Cytotoxicity against HEK293T cells after 48 hrs by MTS assay; format: cell-based, HEK-293T; conditions: human
[14] = system: Enterococcus faecium; assay: Antibacterial activity against vancomycin-sensitive Enterococcus faecium 09-10 by agar dilution method; format: functional
[15] = system: Staphylococcus aureus; assay: Antibacterial activity against methicillin-resistant Staphylococcus aureus ATCC 33591 by agar dilution method; format: functional
[16] = system: Staphylococcus aureus; assay: Antibacterial activity against methicillin-sensitive Staphylococcus aureus 15 by agar dilution method; format: functional
[17] = system: Staphylococcus aureus; assay: Antibacterial activity against methicillin-sensitive Staphylococcus aureus 09-6 by agar dilution method; format: functional
[18] = system: Staphylococcus epidermidis; assay: Antibacterial activity against methicillin-sensitive Staphylococcus epidermidis 09-9 by agar dilution method; format: functional
[19] = system: Enterococcus faecalis; assay: Antibacterial activity against vancomycin-resistant Enterococcus faecalis ATCC 51299 by agar dilution method; format: functional
[20] = system: Enterococcus faecalis; assay: Antibacterial activity against vancomycin-sensitive Enterococcus faecalis 09-8 by agar dilution method; format: functional
[21] = system: Enterococcus faecium; assay: Antibacterial activity against vancomycin-resistant Enterococcus faecium 05-8 by agar dilution method; format: functional
[22] = system: Escherichia coli; assay: Antibacterial activity against extended-spectrum beta-lactamase-negative Escherichia coli 1515 by agar dilution method; format: functional
[23] = system: Escherichia coli; assay: Antibacterial activity against extended-spectrum beta-lactamase-negative Escherichia coli 09-20 by agar dilution method; format: functional
[24] = system: Klebsiella pneumoniae; assay: Antibacterial activity against extended-spectrum beta-lactamase-positive Klebsiella pneumoniae ATCC 700603 by agar dilution method; format: functional
[25] = system: Klebsiella pneumoniae; assay: Antibacterial activity against extended-spectrum beta-lactamase-negative Klebsiella pneumoniae 09-8 by agar dilution method; format: functional
[26] = system: Pseudomonas aeruginosa; assay: Antibacterial activity against Pseudomonas aeruginosa ATCC 27853 by agar dilution method; format: functional
[27] = system: Pseudomonas aeruginosa; assay: Antibacterial activity against Pseudomonas aeruginosa PAO1 by agar dilution method; format: functional
[28] = system: Pseudomonas aeruginosa; assay: Antibacterial activity against Pseudomonas aeruginosa 09-14 by agar dilution method; format: functional
[29] = system: Acinetobacter calcoaceticus; assay: Antibacterial activity against Acinetobacter calcoaceticus ATCC 19606 by agar dilution method; format: functional
[30] = system: Enterobacter cloacae; assay: Antibacterial activity against Enterobacter cloacae 45301 by agar dilution method; format: functional
[31] = system: Klebsiella aerogenes; assay: Antibacterial activity against Enterobacter aerogenes 45102 by agar dilution method; format: functional
[32] = system: Serratia marcescens; assay: Antibacterial activity against Serratia marcescens 41002 by agar dilution method; format: functional
[33] = system: Morganella morganii; assay: Antibacterial activity against Morganella morganii ATCC 25830 by agar dilution method; format: functional
[34] = system: Providencia rettgeri; assay: Antibacterial activity against Providencia rettgeri ATCC 31052 by agar dilution method; format: functional
[35] = system: Proteus vulgaris; assay: Antibacterial activity against Proteus vulgaris ATCC 29905 by agar dilution method; format: functional
[36] = system: Proteus mirabilis; assay: Antibacterial activity against Proteus mirabilis 09-1 by agar dilution method; format: functional
[37] = system: Salmonella typhi; assay: Antibacterial activity against Salmonella typhi H901 by agar dilution method; format: functional, Salmonella enterica subsp. enterica serovar Typhi; conditions: Salmonella enterica
[38] = system: Citrobacter freundii; assay: Antibacterial activity against Citrobacter freundii ATCC 43864 by agar dilution method; format: functional

| Structure (SMILES) | MIC [1] [mg/L] | MIC [2] [mg/L] | MIC [3] [mg/L] | MIC [4] [mg/L] | MIC [5] [mg/L] | MIC [6] [mg/L] | MIC [7] [mg/L] | MIC [8] [mg/L] | MIC [9] [mg/L] | MIC [10] [mg/L] | MIC [11] [mg/L] | MIC [12] [mg/L] | CC50 at 48 h [13] [mg/L] | MIC [14] [mg/L] | MIC [15] [mg/L] | MIC [16] [mg/L] | MIC [17] [mg/L] | MIC [18] [mg/L] | MIC [19] [mg/L] | MIC [20] [mg/L] | also measured |
| --- | --- | --- | --- | --- | --- | --- | --- | --- | --- | --- | --- | --- | --- | --- | --- | --- | --- | --- | --- | --- | --- |
| CC1CC(C)CN(C(=N)c2ccc3cc(-c4ccc(Oc5ccc(-c6cc7ccc(C(=N)N8CC(C)CC(C)C8)cc7[nH]6)cc5)cc4)[nH]c3c2)C1 (stereo unspecified) | 64 (≈ 94.5 µM) | 16 (≈ 23.6 µM) | 16 (≈ 23.6 µM) | 16 (≈ 23.6 µM) | 128 (≈ 189 µM) | 64 (≈ 94.5 µM) | 128 (≈ 189 µM) | > 128 | > 128 | > 128 | > 128 | > 128 | 2.6 (≈ 3.84 µM) | 128 (≈ 189 µM) | 64 (≈ 94.5 µM) | 64 (≈ 94.5 µM) | 64 (≈ 94.5 µM) | 64 (≈ 94.5 µM) | 64 (≈ 94.5 µM) | 64 (≈ 94.5 µM) | MIC [21]: > 128 mg/L; MIC [22]: > 128 mg/L; MIC [23]: > 128 mg/L; MIC [24]: > 128 mg/L; MIC [25]: > 128 mg/L; MIC [26]: > 128 mg/L; MIC [27]: > 128 mg/L; MIC [28]: > 128 mg/L; MIC [29]: > 128 mg/L; MIC [30]: > 128 mg/L; MIC [31]: > 128 mg/L; MIC [32]: > 128 mg/L; MIC [33]: > 128 mg/L; MIC [34]: > 128 mg/L; MIC [35]: > 128 mg/L; MIC [36]: > 128 mg/L; MIC [37]: > 128 mg/L; MIC [38]: > 128 mg/L |
| CC(C)NC(=N)c1ccc2cc(-c3ccc(Oc4ccc(-c5cc6ccc(C(=N)NC(C)C)cc6[nH]5)cc4)cc3)[nH]c2c1 | 1 (≈ 1.76 µM) | 1 (≈ 1.76 µM) | 1 (≈ 1.76 µM) | 1 (≈ 1.76 µM) | 1 (≈ 1.76 µM) | 2 (≈ 3.52 µM) | 1 (≈ 1.76 µM) | 16 (≈ 28.1 µM) | 32 (≈ 56.3 µM) | 64 (≈ 113 µM) | 64 (≈ 113 µM) | 64 (≈ 113 µM) | 7.3 (≈ 12.8 µM) | 2 (≈ 3.52 µM) | 1 (≈ 1.76 µM) | 1 (≈ 1.76 µM) | 1 (≈ 1.76 µM) | 1 (≈ 1.76 µM) | 2 (≈ 3.52 µM) | 1 (≈ 1.76 µM) | MIC [21]: 1 mg/L (≈ 1.76 µM); MIC [22]: 32 mg/L (≈ 56.3 µM); MIC [23]: 32 mg/L (≈ 56.3 µM); MIC [24]: 64 mg/L (≈ 113 µM); MIC [25]: 64 mg/L (≈ 113 µM); MIC [26]: 64 mg/L (≈ 113 µM); MIC [27]: > 128 mg/L; MIC [28]: 64 mg/L (≈ 113 µM); MIC [29]: 128 mg/L (≈ 225 µM); MIC [30]: 64 mg/L (≈ 113 µM); MIC [31]: 64 mg/L (≈ 113 µM); MIC [32]: 64 mg/L (≈ 113 µM); MIC [33]: 16 mg/L (≈ 28.1 µM); MIC [34]: 64 mg/L (≈ 113 µM); MIC [35]: 64 mg/L (≈ 113 µM); MIC [36]: 64 mg/L (≈ 113 µM); MIC [37]: 32 mg/L (≈ 56.3 µM); MIC [38]: 64 mg/L (≈ 113 µM) |
